Experiments:
[1] = test system: collagenase-induced tendonitis of the Achilles tendon in Sprague Dawley rats; experiment: Rat Tendinopathy Model (1), collagenase-induced, tendon histology scoring; assay type: in vivo; details: for tendon histology score: topical once daily 21 days, total score of 20
Description: (§1) Fifty (50 μl) of Collagenase Type IA (10 mg/ml in PBS, pH 7.4, approximately 469 units/mg) (Catalog # C5138, Sigma, St. Louis, Mo.) was injected into the Achilles tendon of both ankles near the osteotendinous junction of male Sprague Dawley CD® IGS rats (CRL, Inc.), using insulin syringes with 28.5 G needle.
(§2) Rats were divided into 6 groups with 5 animals per group: Group 1 (sham injection); Group 2 (Collagenase-Vehicle); Group 3 (Collagenase-compound 175 10 mg/mL with 1% BA) and Group 4 (Collagenase-COMPOUND 175 10 mg/mL with 0.5% Tween 80). […] All rats were periodically observed for any pain, illnesses or abnormalities. At various time points, blood was collected for plasma in lithium heparin coated tubes by saphenous vein bleeding. For histology, rats were euthanized using isoflurane, tendons were isolated (n=6 tendons/group), fixed in 10% buffered formalin (Catalog # SF93-4, Fisher, Pittsburgh Pa.) and H & E histology staining was performed at a secondary site (Pacific Pathology, San Diego, Calif.). For biochemical analysis, tendons were isolated (n=4 tendons/group), flash frozen in liquid nitrogen and then stored at −80° C. for subsequent biochemical analysis (not reported).
There is biological variability in response to collagenase when injected directly into the tendons. […] Slides were viewed under an upright light microscope (EVOS AMEX-1200) at a 10× magnification and scored blinded using a 1-4 scoring system of severity: 1—representing severe damage and 4—representing normal tendon, for Linearity of the fiber structure, Shape of the tendon cells, Density of the tendon cells, Inflammation, and Hemorrhage for a total score of twenty (20) using a modification of that described previously (Urdzikova et al., 2014—see Table 3). […]
For tendon scoring, each section was analyzed following a 1-4 point scoring system as previously described (Urdzikova et al., 2014) with the exclusion of one variable, the Thickness of the epitenon, due to the difficulty in discerning the epitenon layer in histology sections. […]

[2] = test system: Wnt-responsive promoter driving firefly luciferase in SW480 cells; experiment: Wnt reporter (SP5 promoter-luciferase) screening assay in SW480 cells; assay type: cell-based; details: Homo sapiens, 24-40 h, top concentration ten micromolar
Method in brief: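 SW480 (APC-mutant colon) cells stably transduced with lentiviral SP5-promoter (eight TCF/LEF sites) firefly luciferase, ~10,000 cells/well. Signals normalized to DMSO controls for EC50 fitting.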

[3] = test system: KC/GRO in plasma; experiment: Rat Tendinopathy Model (1), plasma biomarker KC/GRO; assay type: in vivo
Description: as §1
as §2, with “Rats were divided into 6 groups with 5 animals per group: Group 1 (sham injection); Group 2 (Collagenase-Vehicle); Group 3 (Collagenase-compound 175 10 mg/mL with 1% BA) and Group 4 (Collagenase-COMPOUND 175 10 mg/mL with 0.5% Tween 80).” left out
Following manufacturer's instructions, KC/GRO plasma levels were determined using the KC/GRO Immunoassay kit (Catalog#900-K57, Peprotech, Rocky Hill, N.J.). Briefly, 96-well plates were coated with the anti-rat KC/GRO capture antibody overnight and washed to remove excess antibody. Plasma samples were incubated in the coated plates for 2 hours at room temperature. Following washes to remove unbound proteins, biotinylated anti-rat KC/GRO detection antibody was added and incubated for 30 mins at room temperature. Following washes to remove unbound excess antibody, avidin-HRP was added and incubated for 30 mins at room temperature. Following washes to remove unbound Avidin-HRP, the ABTS substrate was added and the plates were read on the Cytation 3 plate reader (Biotek Inc., Winooski, Vt.) at an absorbance of 525 nm with correction at 450 nm. All samples were processed in triplicate.
In this study, a total of 64 sections were scored for Group 1 (sham injection group) and approximately 96 sections each for Group 2 (Collagenase-Vehicle), Group 3 (Collagenase-compound 175 with BA preservative) group and Group 4 (Collagenase-compound 175 without preservative). To determine statistical significance between groups, student's t-test was performed with p<0.05 considered as significant for histology scoring and biomarker assay.

EC50 [2]: 25 nM
SMILES: COc1ccc(NC(=O)c2n[nH]c3ccc(-c4cncc(CN5CCCCC5)c4)cc23)cn1 [compound 175, N-(6-Methoxypyridin-3-yl)-5-(5-(piperidin-1-ylmethyl)pyridin-3-yl)-1H-indazole-3-carboxamide]
blinded histology scoring of tendon injury and inflammation vs vehicle ([1]; 10 mg/ml with or without BA preservative, topical 21 days): significantly ameliorated collagenase-induced tendinopathy
tendon histology score ([1]; Group 3, 10 mg/mL with BA): 14.0 (±0.217)
tendon histology score ([1]; Group 4, 10 mg/mL without BA (0.5% Tween 80)): 12.2 (±0.284)
plasma KC/GRO vs vehicle ([3]; 10 mg/mL with or without BA preservative): significantly decreased the levels of KC/GRO in plasma
Plasma KC/GRO Concentration ([3]; Day 0, Group 3, 10 mg/mL with 0.5% BA): 332 ± 51.3 pg/mL
Plasma KC/GRO Concentration ([3]; Day 0, Group 4, 10 mg/mL without BA, with 0.5% Tween 80): 530 ± 31.4 pg/mL
Plasma KC/GRO Concentration ([3]; Day 1, Group 3, 10 mg/mL with 0.5% BA): 521 ± 23.9 pg/mL
Plasma KC/GRO Concentration ([3]; Day 1, Group 4, 10 mg/mL without BA, with 0.5% Tween 80): 637 ± 120 pg/mL
Plasma KC/GRO Concentration ([3]; Day 3, Group 3, 10 mg/mL with 0.5% BA): 813 ± 61.4 pg/mL
Plasma KC/GRO Concentration ([3]; Day 3, Group 4, 10 mg/mL without BA, with 0.5% Tween 80): 541 ± 58.9 pg/mL
Plasma KC/GRO Concentration ([3]; Day 5, Group 3, 10 mg/mL with 0.5% BA): 480 ± 48.7 pg/mL
Plasma KC/GRO Concentration ([3]; Day 5, Group 4, 10 mg/mL without BA, with 0.5% Tween 80): 410 ± 86.0 pg/mL
Plasma KC/GRO Concentration ([3]; Day 7, Group 3, 10 mg/mL with 0.5% BA): 421 ± 57.2 pg/mL
Plasma KC/GRO Concentration ([3]; Day 7, Group 4, 10 mg/mL without BA, with 0.5% Tween 80): 451 ± 76.6 pg/mL
Plasma KC/GRO Concentration ([3]; Day 14, Group 3, 10 mg/mL with 0.5% BA): 400 ± 10.3 pg/mL
Plasma KC/GRO Concentration ([3]; Day 14, Group 4, 10 mg/mL without BA, with 0.5% Tween 80): 424 ± 76.2 pg/mL
Plasma KC/GRO Concentration ([3]; Day 21, Group 3, 10 mg/mL with 0.5% BA): 408 ± 83.3 pg/mL
Plasma KC/GRO Concentration ([3]; Day 21, Group 4, 10 mg/mL without BA, with 0.5% Tween 80): 347 ± 111 pg/mL
plasma KC/GRO levels, range ([3]; Days 5-21, treated group with BA): 400 to 480 pg/mL
plasma KC/GRO levels, range ([3]; Days 5-21, treated group without BA): 347 to 451 pg/mL
